Each structure is given as a SMILES string.

We go through 1 molecule from article PMC6926478, “Structures of Respiratory Supercomplex I+III2 Reveal Functional and Conformational Crosstalk” (Molecular Cell, 2019).

For the experiment, the target named is T1, SC I+III2 (complex I, NADH/FMN site) (Ovis aries, UniProt Z9LRO2FUZ7).
T1 construct: native supercomplex I+III2 from heart mitochondria, LMNG-extracted, amphipol A8-35 stabilised; complex I has 45 subunits, ~1 MDa; with NADH dehydrogenase [ubiquinone] flavoprotein 2, mitochondrial; NADH-ubiquinone oxidoreductase 75 kDa subunit, mitochondrial; NADH dehydrogenase [ubiquinone] iron-sulfur protein 2, mitochondrial; NADH dehydrogenase [ubiquinone] iron-sulfur protein 7, mitochondrial; NADH-ubiquinone oxidoreductase chain 1; Cytochrome b
Description: cryoEM structure, […] Å focused map of CI peripheral arm. It is filed as binding. To be noted: native cofactor.

Turning to `Cc1cc2nc3c(=O)[nH]c(=O)nc-3n(C[C@H](O)[C@H](O)[C@H](O)COP(=O)(O)O)c2cc1C` [FMN], the “cryoEM structure, 3.8 Å focused map of CI peripheral arm” value was “The FMN, FeS clusters, and heme groups are shown colored by atom”.
